Source: US5534554A, “Sucrose ester-C20 to C28 alcohol formulations” (priority 1994, dated 1996)
Read-outs that look alike come from different tables or passages of the source.

What was measured:
viruses = conditions: cited from earlier work
[1] = literature; cited from earlier work
wild-type HSV-2 = assay: Plaque inhibition, wild-type HSV-2 in Vero cells; type: cell-based; conditions: FIG. 7, Panel A
[2] = system: acyclovir-resistant HSV-2; assay: Plaque inhibition, acyclovir-resistant HSV-2 in Vero cells; type: cell-based; conditions: FIG. 7, Panel B
HIV-1 = HIV-1 replication in PHA/IL-2-stimulated human peripheral blood mononuclear cells (p24 ELISA); type: cell-based; conditions: n-docosanol/Pluronic, FIG. 13
Experimental: Human peripheral blood mononuclear cells were cultured in medium containing 1 μg/ml PHA plus 5 units/ml IL-2 alone or also containing 100 μg/ml PFA, […] F-68 control vehicle contained in the high dose of n-docosanol/Pluronic. After overnight incubation, the cultures were inoculated with HIV-1 at a multiplicity of infection of 1 virion/cell. After 24 hours incubation at 37° C., the cultures were washed and inoculated with fresh medium containing PHA and IL-2, but lacking inhibitor. Replication of HIV-1 was determined 4 days later by quantitation of viral antigens by a p24-specific ELISA for HIV-1.
Our initial studies on HIV were conducted in collaboration with a U.S. National Institutes of Health laboratory and one of several experiments of this type is summarized in FIG. 13. Normal human peripheral blood mononuclear cells were activated with […] PHA plus 5 units/ml of IL-2 in medium alone or in the presence of the n-docosanol, Pluronic F-68 control vehicle, or phosphonoformic acid (PFA). The next day, the cultures were inoculated with HIV-1 and examined 4 days later for evidence of viral replication by detection of the p24 viral antigen. […] The dose response of HIV-1 to n-docosanol indicates an ED 50 of about 6-9 mM.

herpes [3] = conditions: literature, animal studies; cited from earlier work
herpes [4] = conditions: literature, tissue culture; cited from earlier work

SMILES: CCCCCCCCCCO [Formulation C-10]
- antiviral activity (viruses; literature): significant antiviral activity
- cytotoxic and hemolytic effects [1]: exhibited cytotoxic and hemolytic effects

SMILES: CCCCCCCCCCCCO [Formulation C-12]
- antiviral activity (viruses; literature): significant antiviral activity
- cytotoxic and hemolytic effects [1]: exhibited cytotoxic and hemolytic effects

SMILES: Nc1nc2c(ncn2COCCO)c(=O)[nH]1 [acyclovir, reference compound]
- inhibition of plaque formation (wild-type HSV-2): inhibit plaque formation by wild type HSV-2 equally
- inhibition of acyclovir-resistant HSV-2 mutant [2]: fails to respond

SMILES: OCc1ccccc1 [benzyl alcohol]
- antiviral activity (viruses; under certain circumstances, U.S. Pat. No. 4,200,655): some antiviral activity

SMILES: O=C(O)P(=O)(O)O [phosphonoformic acid, reference compound]
- inhibition of HIV-1 replication (HIV-1): very potent antiviral compound

SMILES: CCCCCCCCCCCCCCCCCCCCCCCCCCCCCCO [triacontanol]
- anti-herpes activity (herpes [3]): active as an anti-herpes agent
- direct antiviral activity (herpes [4]): lacked direct antiviral activity
